Read-outs that look alike come from different tables or passages of the source.
Experiments:
[1] = tested on: coaD CRISPRi knockdown Mtb mutant (Mtb H37RvMA); format: cell-based, Mycobacterium tuberculosis
[2] = tested on: coaBC CRISPRi knockdown Mtb mutant (Mtb H37RvMA); format: cell-based, Mycobacterium tuberculosis; conditions: highest ATc concentrations compatible with uninhibited proliferation

SMILES	Effect of ATc (coaD silencing) on susceptibility [1]	minimum inhibitory concentration, MIC [1]	Effect of ATc (coaD silencing) on susceptibility ([1]; 1.6 and 0.8 ng/mL ATc)	Effect of ATc (coaBC silencing) on susceptibility [2]
CO[C@H]1/C=C/O[C@@]2(C)Oc3c(C)c(O)c4c(O)c(c(/C=N/N5CCN(C)CC5)c(O)c4c3C2=O)NC(=O)/C(C)=C\C=C\[C@H](C)[C@H](O)[C@@H](C)[C@@H](O)[C@@H](C)[C@H](OC(C)=O)[C@@H]1C [rifampicin, reference compound]	did not render the coaD CRISPRi Mtb mutant more susceptible			
NNC(=O)c1ccncc1 [isoniazid, reference compound]	did not render the coaD CRISPRi Mtb mutant more susceptible			
O=C(O)c1cnn(-c2ccccc2)c1OCCCc1c[nH]c2ccccc12 [compound 20]		≈ 60 μM	enhanced in an ATc concentration‐dependent manner	little‐to‐no effect

Source: article PMC10947119 (Angewandte Chemie (International Ed. in English), 2023)
